The source of these data is patent US9133230B2, “Hydrazone derivatives having potent antitumor activity toward multi-drug resistant tumor cells” (THE UNITED STATES OF AMERICA AS REPRESENTED BY THE …, priority 2011, dated 2015).

SMILES strings stand for the structures.

Holding throughout (assay type): cell-based
One test concerns colon cancer cell lines. Put plainly: NCI 60 human tumor cell line screen, colon. The conditions noted are these: Homo sapiens, arithmetic mean of two to nine cancer cell lines, read-out: Inhibitory concentration GI50, colon. An excerpt:
(§1) Selected compounds were submitted for testing in the organ-specific panel of human tumor cell lines at the National Cancer Institute, Bethesda, Md. This screen utilized 60 human tumor cell lines, representing leukemia, melanoma, and cancers of the lung, colon, brain, ovary, kidney, prostate, and breast (Boyd, M. R., “Status of the NCl preclinical antitumor drug discovery screen”. In Principles and practice of oncology updates; De Vita, V. T., Jr. Hellman, S., Rosenberg, S. A., Eds.; Lippincott: Philadelphia, Pa., 1989; Vol. 3, pp 1-12).
(§2) The MG MID value is the average of the GI50 values for all the cell lines tested for drug concentrations in the range of 10^−4-10^−8 M (See website domain: dtp.nci.nih.gov/dtp).

Test [1] concerns human myelogenous leukemia K562. Put plainly: MTS cytotoxicity assay, K562. The conditions noted are these: Homo sapiens, K562, 48 h incubation. In outline:
(§3)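 Log-phase human tumour cells plated at about 5000 cells/mL, left 24 h, then exposed to compound dilutions in triplicate for 48 h at 37 °C, 5% CO2. Viability read as MTS/PMS tetrazolium reduction after 2 h, absorbance at 490 nm.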

In a further test the test system is CNS cancer cell lines. Put plainly: NCI 60 human tumor cell line screen, CNS. The conditions noted are these: Homo sapiens, arithmetic mean of two to nine cancer cell lines, read-out: Inhibitory concentration GI50, CNS.
Excerpt: as §1, §2

Test [2] relates to ovarian cancer cell lines. Description: NCI 60 human tumor cell line screen, ovarian. The conditions noted are these: Homo sapiens, arithmetic mean of two to nine cancer cell lines, read-out: Inhibitory concentration GI50, ovarian.
Excerpt: as §1, §2

In test [3] the test system is human breast carcinoma MCF-7. Put plainly: MTS cytotoxicity assay, MCF-7. The conditions noted are these: Homo sapiens, MCF7, 48 h incubation. In outline:
as §3

In test [4] the test system is human colorectal carcinoma HT29. Put plainly: Western blot of signal transduction pathways in HT29 cells. As to conditions: HT29, IC50 dose. A general note: Immunoblotting shows a protein as a band on a membrane.
Test [5] concerns human colon carcinoma HCT-15. Put plainly: MTS cytotoxicity assay, HCT-15. As to conditions: Homo sapiens, HCT-15, 48 h incubation. An outline of the steps:
as §3
A general note: Formazan colour is commonly taken as a measure of viable cells.

For a further test, the system named is renal cancer cell lines. Put plainly: NCI 60 human tumor cell line screen, renal. The conditions noted are these: Homo sapiens, arithmetic mean of two to nine cancer cell lines, read-out: Inhibitory concentration GI50, renal.
Excerpt: as §1, §2

In the next test the test system is HL60-VCR. Put plainly: MTS cytotoxicity on MDR tumor cells, HL60-VCR. The conditions noted are these: HL60/VCR, Vincristine (VCR) resistant, 72 hr incubation.
Another test concerns leukemia cell lines. Description: NCI 60 human tumor cell line screen, leukemia. The conditions noted are these: Homo sapiens, arithmetic mean of two to nine cancer cell lines, read-out: Inhibitory concentration GI50, leukemia.
Excerpt: as §1, §2

Turning to `C(=NNc1ncnc2[nH]cnc12)c1ccccn1` [I-18, 6-(2-(Pyridin-2-ylmethylene)hydrazinyl)-9H-purine], the GI50 in the test on colon cancer cell lines is 1.37 µM; in test [1] it was 2.3 µM; with CNS cancer cell lines it was 0.633 µM; in [2] it was 0.629 µM; in [3], 3.2 µM; in [5], 2 µM. Also, the GI50 with renal cancer cell lines was 1.48 µM; with HL60-VCR, 0.7 µM; in the test on leukemia cell lines, 0.966 µM. Further, the “Activation of NFkB (p50)” value in test [4] was “observed”.
